Data set [1] deals with endotoxic shock induced by intraperitoneal injection of 1 μg LPS in the presence of 20 mg D-galactosamine in laboratory mice. In words: Endotoxic shock, low dose model (1 μg LPS + D-Gal), lethality. It counts as in vivo. As to conditions: for Mortality, percent dead: Table 3, Low Dose Model (1 μg LPS + D-Gal); for Mortality caused by septic shock: intraperitoneal administration prior to LPS challenge (Table 3). As to the method: Endotoxic shock was induced by intraperitoneal injection of 1 μg LPS into laboratory mice in the presence of 20 mg D-galactosamine (D-Gal). This regimen leads to a 90-100% lethality rate by 9-12 hours post injection. The following data in Tables 1-3 reports the mortality rate over 28 days of observation. In one experiment, animals were treated intra peritoneally with piceatannol. […]

Data set [2] deals with LPS induced gene expression (RANTES, MCP-1, ISG54, TNF). The experiment in a line: LPS induced gene expression (interferon regulated genes) in vitro. It counts as cell-based.
For data set [3], the system named is tyrosine kinase Syk. As to conditions: Geahlen, et al. (1989); cited from earlier work.
Data set [4] deals with TNFα. The experiment in a line: Production of TNFα in response to LPS in vitro. It is filed as cell-based.
Data set [5] has as its system MBP-TCR+/STAT1- mice developing spontaneous paralysis. The experiment in a line: Experimental autoimmune encephalomyelitis (EAE), model for multiple sclerosis. It is filed as in vivo. The source says:
Experimental autoimmune encephalomyelitis (EAE) represents a murine model for multiple sclerosis, a TH1 cells mediated demyelinating autoimmune disorder. In this modes, STAT1-deficient mice (Jackson Laboratories, Maine, USA) were crossed with mice carrying a tansgenic T cell receptor against Myelin Basis Protein (MBP) [Lafaille et al. (1994) Cell 78(3):399-408]. The resulting MBP-TCR^+/STAT1^− mice, when on an H2b/u or H2u/u background develop spontaneous paralysis. Typically, in this transgenic system, the disease progresses from early signs of hind leg paralysis (level 2) to the moribund stage of lethal paralysis (level 5) within 4-5 days.
Three mice showing clear signs of hind leg paralysis were injected s.c. with 1 mg piceatannol every 48 hours (FIG. 10). Under this regimen these animals survived for 30 days, at which time piceatannol administration was stopped.

The test system of data set [6] is septic shock induced by 1000 μg LPS intraperitoneally in mice. The experiment in a line: Septic shock, high dose model (1000 μg LPS), lethality. It is filed as in vivo. As to conditions: for Mortality, percent dead: Table 3, High Dose Model (1000 μg LPS), 1000 μM pre, 500 μM SC post every 12; for Mortality caused by septic shock: intraperitoneal administration prior to LPS challenge coupled with subcutaneous administration following LPS challenge (Table 3). As to the method: (§1) Endotoxic shock was induced by intraperitoneal injection of 1 μg LPS into laboratory mice in the presence of 20 mg D-galactosamine (D-Gal). This regimen leads to a 90-100% lethality rate by 9-12 hours post injection. The following data in Tables 1-3 reports the mortality rate over 28 days of observation. In one experiment, animals were treated intra peritoneally with piceatannol.
In another experiment, 1 mg of LPS was administered intraperitoneally. Piceatannol or tetramethoxy-piceatannol (TMP) were administered intraperitoneally prior to LPS treatment, with some mice receiving subcutaneous doses of either piceatannol or TMP following LPS administration.

Data set [7] concerns the target T1, tyrosine kinase ZAP70 (Homo sapiens, UniProt P43403).
T1 sequence (P43403 1-619): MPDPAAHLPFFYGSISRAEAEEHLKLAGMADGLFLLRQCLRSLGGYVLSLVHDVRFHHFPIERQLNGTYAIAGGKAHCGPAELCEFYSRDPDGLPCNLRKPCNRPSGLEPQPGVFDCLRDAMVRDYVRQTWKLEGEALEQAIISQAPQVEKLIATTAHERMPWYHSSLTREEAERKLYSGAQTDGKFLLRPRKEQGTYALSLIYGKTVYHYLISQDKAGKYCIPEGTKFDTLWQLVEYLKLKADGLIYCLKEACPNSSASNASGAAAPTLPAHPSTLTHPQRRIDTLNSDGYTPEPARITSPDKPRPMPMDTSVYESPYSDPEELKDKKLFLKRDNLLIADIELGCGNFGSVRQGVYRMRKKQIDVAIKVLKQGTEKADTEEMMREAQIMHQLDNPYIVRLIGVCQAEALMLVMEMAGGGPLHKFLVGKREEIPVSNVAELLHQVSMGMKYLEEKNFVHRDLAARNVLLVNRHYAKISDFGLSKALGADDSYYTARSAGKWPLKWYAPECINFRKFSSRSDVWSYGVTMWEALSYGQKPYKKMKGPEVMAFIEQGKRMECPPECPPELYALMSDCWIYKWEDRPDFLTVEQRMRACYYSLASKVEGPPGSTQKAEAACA
As to conditions: Geahlen, et al. (1989); cited from earlier work.

The conditions of data set [8]: cited from earlier work.
For data set [9], the system named is Ovalbumin immunized mice. In words: Ovalbumin asthma model, cell infiltration in bronchioalveolar lavage fluid. As to conditions: 1 mg i.p. daily, FIG. 11. It is filed as in vivo. As for the experimental part:
Mice (8 animals) were immunized by intraperitoneal (i.p.) injection of Ovalbumin after 2 weeks, The OA solution was administered into the nasal passage by inhalation without (4) or with (4) concurrent piceatannol regimen (1 mg i.p. daily).

The subject of data set [10] is mice that had received piceatannol alone. In words: Toxicity of piceatannol alone in mice. It counts as in vivo. As to conditions: for Lethality rate: no LPS. As to the method: as §1
The test system of data set [11] is IL-6. In words: Production of IL-6 in response to LPS in vitro. It is filed as cell-based.
The target of data set [12] is tyrosine kinase Tyk2 (Homo sapiens, UniProt P29597). As to conditions: Su, et al. (2000); cited from earlier work.
tyrosine kinase Tyk2, sequence (P29597 whole entry): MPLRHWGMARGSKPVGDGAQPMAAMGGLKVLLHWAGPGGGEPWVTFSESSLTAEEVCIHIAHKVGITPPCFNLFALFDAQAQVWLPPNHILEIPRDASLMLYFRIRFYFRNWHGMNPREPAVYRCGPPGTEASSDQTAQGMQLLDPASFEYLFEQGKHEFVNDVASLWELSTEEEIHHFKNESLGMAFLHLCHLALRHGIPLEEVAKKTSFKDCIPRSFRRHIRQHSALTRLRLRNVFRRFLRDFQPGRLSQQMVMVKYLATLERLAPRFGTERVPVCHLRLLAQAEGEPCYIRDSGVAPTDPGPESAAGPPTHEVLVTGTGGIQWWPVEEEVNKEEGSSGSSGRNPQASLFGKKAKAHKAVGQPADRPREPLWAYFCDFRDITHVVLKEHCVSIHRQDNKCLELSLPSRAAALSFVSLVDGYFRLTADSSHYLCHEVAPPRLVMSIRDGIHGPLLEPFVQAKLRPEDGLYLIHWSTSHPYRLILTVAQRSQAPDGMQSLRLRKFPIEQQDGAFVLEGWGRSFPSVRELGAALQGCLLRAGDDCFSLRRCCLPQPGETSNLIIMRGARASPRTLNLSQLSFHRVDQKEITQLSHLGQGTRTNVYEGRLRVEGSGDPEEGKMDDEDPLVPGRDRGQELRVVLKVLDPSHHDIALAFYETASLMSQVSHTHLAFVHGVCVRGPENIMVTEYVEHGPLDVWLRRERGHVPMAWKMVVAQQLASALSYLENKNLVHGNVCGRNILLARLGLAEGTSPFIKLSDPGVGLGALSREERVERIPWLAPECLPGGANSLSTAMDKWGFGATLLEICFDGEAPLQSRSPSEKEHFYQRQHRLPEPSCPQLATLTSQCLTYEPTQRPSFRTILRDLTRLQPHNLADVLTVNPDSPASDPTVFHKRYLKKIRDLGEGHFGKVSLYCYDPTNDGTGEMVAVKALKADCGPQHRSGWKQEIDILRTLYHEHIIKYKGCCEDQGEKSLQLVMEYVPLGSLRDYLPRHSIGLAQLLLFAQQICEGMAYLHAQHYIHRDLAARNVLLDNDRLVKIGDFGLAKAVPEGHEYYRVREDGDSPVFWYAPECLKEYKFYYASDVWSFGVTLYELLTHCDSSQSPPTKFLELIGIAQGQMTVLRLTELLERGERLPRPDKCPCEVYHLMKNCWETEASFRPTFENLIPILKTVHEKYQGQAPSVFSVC

Molecules are shown by their SMILES. Entries after “also recorded” stand apart in the source; their conditions may differ. Read-outs that look alike come from different tables or passages of the source.

For `Oc1cc(O)cc(/C=C/c2ccc(O)c(O)c2)c1` [Piceatannol, 3,3′,4,5′-tetrahydroxy-trans-stilbene], the Lethality rate in data set [1] (Table 1, LPS 1 μg (+D-Gal) ip, piceatannol 250 μg ip, 28 days of observation) is 5/12; in data set [1] (Table 1, LPS 1 μg (+D-Gal) ip, piceatannol 500 μg ip, 28 days of observation), 0/8; in data set [1] (Table 2, LPS + D-Gal 1 μg ip, piceatannol 250 μg (ip)), 3/8; in data set [1] (Table 2, LPS + D-Gal 1 μg ip, piceatannol 250 μg (iv) + 250 μg (ip)) it was 0/6; in [1] (Table 2, LPS + D-Gal 1 μg ip, piceatannol 400 μg (ip)) it was 0/2; in data set [6] (Table 1, LPS 1000 μg ip, piceatannol 500 → 1000 μg ip, 28 days of observation), 3/8. The Lethality rate in data set [10] (Table 1, piceatannol 1000 μg intraperitoneal, dead/total, 28 days of observation) is given as 0/8; in data set [10] (Table 2, piceatannol 1000 μg (ip)), 0/6; in data set [10] (Table 2, piceatannol 1000 μg (iv)) it was 0/2. Also, the “Mortality, percent dead” value was found to be 48% in data set [1] (400 μM ip prior to LPS), 35% in data set [1] (1000 μM ip prior to LPS) and 50% in data set [6]. The Animals rescued entry in [1] (administration several hours after LPS challenge, animal model of sepsis) is “approximately 50%”. Moreover, the “Protection against endotoxic shock” value is given as “up to 100%” in data set [1] (combined intravenous and intraperitoneal administration); “up to 100%” in data set [1] (single administration, animal model of sepsis). Further, the “Mortality caused by septic shock” value in data set [1] is “significantly reducing mortality”; in data set [6], “significantly reduced mortality”. Further, the “Death associated with endotoxic shock” value in data set [1] (single administration by either the intravenous or intraperitoneal route) was “significantly reduced death”. Moreover, the “Concentration that blocks LPS induced gene expression (e.g., RANTES, MCP-1, TNF)” value in data set [2] is on record as “micromolar range”. Further, in data set [2] (in vitro), the “Concentration that blocks LPS induced gene expression (e.g., RANTES, MCP-1, ISG54)” value is “micromolar concentrations; also recorded: micromolar range”. Also, the “Inhibition of tyrosine kinase Syk” value in data set [3] is listed as “inhibitor”. Moreover, the “Production of TNFα in response to LPS” value in [4] was “inhibited”. Besides, the “Time to complete paralysis and death after administration was stopped” value in data set [5] (after 30 days of 1 mg s.c. every 48 hours) is “Ten”. In addition, the Disease progression result in [5] (for the duration of administration, 1 mg s.c. every 48 hours) was “completely halted disease progression”. This compound returned a Survival under treatment in data set [5] (three mice with hind leg paralysis, 1 mg s.c. every 48 hours, administration stopped at that time) of 30 days. Further, in [7], the “Inhibition of tyrosine kinase ZAP70” value is listed as “inhibitor”. Further, the Water solubility entry in data set [8] is recorded as “partially water soluble”; in data set [8] (listed as piceatannol), “water soluble”. For the same compound, in data set [9], the “Eosinophils infiltration into the lungs” value was “significant reduction”. Besides, the “Lymphocytes infiltration into the lungs” value in data set [9] is “significant reduction”. Moreover, the “Toxicity in vivo (overall statement)” value in data set [10] (data of Tables 1 and 2 / Examples 1 and 3) is reported as “very low toxicity; also recorded: low toxicity”. Further, the “Acute or chronic toxicity” value in data set [10] (healthy animals, repeated high dose (1 mg) intraperitoneal injections) was “did not detect any acute or chronic toxicity”. The “Acute toxicity (within 2 hours post-injection)” value in data set [10] (piceatannol alone, up to 1 mg intraperitoneal or intravenously) is reported as “no signs of acute (i.e., within 2 hours post-injection) toxicity”. The Delayed toxicity result in data set [10] (with or without subsequent LPS injection, monitored for several weeks) was “no signs of delayed toxicity”. In [11], the “Production of IL-6 in response to LPS” value was “inhibited”. Besides, the “Inhibition of tyrosine kinase Tyk2” value in data set [12] was “potent inhibitor”.
Regarding `Oc1ccc(/C=C/c2cc(O)cc(O)c2)cc1` [resveratrol, trihydroxy-stilbene], the Water solubility result in data set [8] is “water soluble”.
`COc1cc(/C=C/c2ccc(OC)c(OC)c2)cc(OC)c1` [TMP, tetramethoxy-piceatannol]: the “Mortality, percent dead” value in data set [1] (1000-1250 μM ip prior to LPS) is given as 38%; in [6], 44%. Further, the “Mortality caused by septic shock” value in data set [1] is on record as “significantly reducing mortality”; in [6], “significantly reduced mortality”. In addition, in data set [2] (in vitro), the “Inhibition of LPS-mediated ISG induction, compared with piceatannol” value is on record as “as effective as piceatannol”.

The values above are taken from patent publication US8455553B2, “Methods and compositions for prevention and treatment of inflammatory disease, autoimmune disease and transplant rejection” (The Regents of the University of California, priority 2001, dated 2013).
